Among the data in ChEMBL document CHEMBL1131738, “Rational design of N-[2-(2,5-dimethoxyphenylethyl)]-N'-[2-(5-bromopyridyl)]-thiourea (HI-236) as a potent non-nucleoside inhibitor of drug-resistant human immunodeficiency virus” (Bioorg Med Chem Lett, 1999) are IC50 values, retold here.

Where only a bound is given, the exact number is not on record here.

Assay [1] has as its target Human immunodeficiency virus type 1 reverse transcriptase (Human immunodeficiency virus 1, UniProt Q72547). Briefly: Inhibition of purified recombinant HIV-1 reverse transcriptase.
Assay [2] in a line: Inhibitory activity of compound on p24 production in peripheral blood mononuclear cells infected with HIV strain RT-MDR. The assay is classed as functional. To be noted: Homo sapiens.
Assay [3] is described as follows: Inhibitory activity of compound on p24 production in peripheral blood mononuclear cells infected with HIV strain A17 variant. As to conditions: Homo sapiens. Format: functional.
A short description of assay [4]: Inhibitory activity of compound on p24 production in peripheral blood mononuclear cells infected with HIV strain A17. Format: functional. As to conditions: Homo sapiens.
Assay [5] in a line: Inhibitory activity of compound on p24 production in peripheral blood mononuclear cells infected with HIV strain HTLV IIIB wild type. Format: functional. To be noted: Homo sapiens.
Assay [6] can be described thus: Inhibitory activity of compound won p24 production in peripheral blood mononuclear cells infected with HIV strain HTLV IIIB wild type. The assay is classed as functional. To be noted: Homo sapiens.

In the case of `Fc1ccc(CCNC(=S)Nc2ccc(Br)cn2)cc1`, the IC50 in assay [1] stood at 6400 nM.

As to `COc1ccc(OC)c(CCNC(=S)Nc2ccc(Br)cn2)c1`, the IC50 in assay [2] was 5 nM; in assay [3] it was 11000 nM; in assay [4] it was 100 nM; in assay [5], less than 1 nM; in assay [1] it was 100 nM.

Regarding `S=C(NCCc1ccccc1Cl)Nc1ccc(Br)cn1`, the IC50 in assay [2] was 4 nM; in assay [5] it was less than 10 nM; in assay [1], 700 nM.

In the case of `S=C(NCCC1=CCCCC1)Nc1ccc(Cl)cn1`, the figures for the IC50 in assay [5] and in assay [1] were 3 nM and 3700 nM, respectively.

For `CC(C)Nc1cccnc1N1CCN(C(=O)c2cc3cc(NS(C)(=O)=O)ccc3[nH]2)CC1` [DELAVIRDINE], the IC50 is 400 nM in assay [2], greater than 100000 nM in assay [3], 50000 nM in assay [4] and 9 nM in assay [5].

As to `Fc1ccccc1CCNC(=S)Nc1ccc(Br)cn1`, the IC50 in assay [2] was 5 nM; in assay [3], 41000 nM; in assay [4] it was 200 nM; in assay [5], less than 10 nM; in assay [1] it was 600 nM.

Consider `S=C(NCCc1ccccn1)Nc1ccc(Br)cn1` [TROVIRDINE], for which the figures for the IC50 in assay [2] and in assay [5] were 20 nM and 7 nM, respectively.

`Cc1cn([C@H]2C[C@H](N=[N+]=[N-])[C@@H](CO)O2)c(=O)[nH]c1=O` [ZIDOVUDINE]: the IC50 in assay [2] was 150 nM; in assay [3] it was 4 nM; in assay [4] it was 6 nM; in assay [5], 4 nM.

Turning to `Cc1ccnc2c1NC(=O)c1cccnc1N2C1CC1` [NEVIRAPINE], the IC50 in assay [2] was 5000 nM; in assay [6] it was 34 nM; in assay [3] it was greater than 100000 nM; in assay [4], greater than 100000 nM.

Regarding `CCOCn1c(Cc2ccccc2)c(C(C)C)c(=O)[nH]c1=O` [EMIVIRINE], the IC50 in assay [2] amounted to 300 nM; in assay [1], 800 nM.

Take `Fc1cccc(CCNC(=S)Nc2ccc(Br)cn2)c1`: the IC50 in assay [2] was 20 nM; in assay [5], less than 1 nM; in assay [1], 700 nM.

As a reminder, the IC50 is the midpoint of a concentration-inhibition curve.
